Laboratory results from patent US20060229433A1, “Modified antiviral peptides with increased activity and cell membrane affinity” (priority 2003, published 2006).

Tested on: C8166 cells
Assay: Toxicity on C8166 cells (daily cell count, trypan-blue exclusion)
Type: cell-based
Details: at doses up to 10 μM
Procedure: Samples of 3×10^5/100 μL C8166 cells were preincubated in 96-well microtiter plates in culture medium containing various concentrations of peptide. After a 1 h treatment at 37° C., 100 μl of diluted viral solution of HIV-1 was added. The cells were exposed to the virus for 1 h at 37° C. at a multiplicity of infection of 1000 TCID50 per ml. The cells were washed three times and cultured at 3×10^5/ml of R10 with the treatment in 24-well plates incubated at 37° C. C8166 culture medium was replaced at Day-4 post-infection. The treatment was permanent before virus adsorption, during virus adsorption and after infection. Assays on C8166 cells have been performed at least twice and in duplicate. Toxicity was evaluated by daily cell count and trypan-blue exclusion assay. Infection of C8166 T-cells with HIV-1 was assessed by virus-induced cytopathic effects (syncytia formation) and by quantification of cell free p24 viral protein in the culture supernatants. Measurements of HIV-1 p24^gag concentration in the culture supernatants were achieved by ELISA (ALLIANCE® HIV-1 p24 kit, Perkin Elmer, life sciences, USA).

SMILES	toxicity on cells
C[C@H](NC(=O)[C@H](CCCNC(=N)N)NC(=O)CNC(=O)[C@@H]1CCCN1C(=O)CN)C(=O)N[C@@H](Cc1ccccc1)C(=O)NCCCC[C@H](NC(=O)[C@H](Cc1ccccc1)NC(=O)[C@H](C)NC(=O)[C@H](CCCNC(=N)N)NC(=O)CNC(=O)[C@@H]1CCCN1C(=O)CN)C(=O)NCCCC[C@H](NC(=O)[C@H](CCCCNC(=O)[C@H](Cc1ccccc1)NC(=O)[C@H](C)NC(=O)[C@H](CCCNC(=N)N)NC(=O)CNC(=O)[C@@H]1CCCN1C(=O)CN)NC(=O)[C@H](Cc1ccccc1)NC(=O)[C@H](C)NC(=O)[C@H](CCCNC(=N)N)NC(=O)CNC(=O)[C@@H]1CCCN1C(=O)CN)C(=O)NCCCC[C@H](NC(=O)[C@H](CCCCNC(=O)[C@H](CCCCNC(=O)[C@H](Cc1ccccc1)NC(=O)[C@H](C)NC(=O)[C@H](CCCNC(=N)N)NC(=O)CNC(=O)[C@@H]1CCCN1C(=O)CN)NC(=O)[C@H](Cc1ccccc1)NC(=O)[C@H](C)NC(=O)[C@H](CCCNC(=N)N)NC(=O)CNC(=O)[C@@H]1CCCN1C(=O)CN)NC(=O)[C@H](CCCCNC(=O)[C@H](Cc1ccccc1)NC(=O)[C@H](C)NC(=O)[C@H](CCCNC(=N)N)NC(=O)CNC(=O)[C@@H]1CCCN1C(=O)CN)NC(=O)[C@H](Cc1ccccc1)NC(=O)[C@H](C)NC(=O)[C@H](CCCNC(=N)N)NC(=O)CNC(=O)[C@@H]1CCCN1C(=O)CN)C(=O)NCCCCC(=O)O [S5, SPC3-(δ-aminovaleric acid)]	no toxicity
C[C@H](NC(=O)[C@H](CCCNC(=N)N)NC(=O)CNC(=O)[C@@H]1CCCN1C(=O)CN)C(=O)N[C@@H](Cc1ccccc1)C(=O)NCCCC[C@H](NC(=O)[C@H](Cc1ccccc1)NC(=O)[C@H](C)NC(=O)[C@H](CCCNC(=N)N)NC(=O)CNC(=O)[C@@H]1CCCN1C(=O)CN)C(=O)NCCCC[C@H](NC(=O)[C@H](CCCCNC(=O)[C@H](Cc1ccccc1)NC(=O)[C@H](C)NC(=O)[C@H](CCCNC(=N)N)NC(=O)CNC(=O)[C@@H]1CCCN1C(=O)CN)NC(=O)[C@H](Cc1ccccc1)NC(=O)[C@H](C)NC(=O)[C@H](CCCNC(=N)N)NC(=O)CNC(=O)[C@@H]1CCCN1C(=O)CN)C(=O)NCCCC[C@H](NC(=O)[C@H](CCCCNC(=O)[C@H](CCCCNC(=O)[C@H](Cc1ccccc1)NC(=O)[C@H](C)NC(=O)[C@H](CCCNC(=N)N)NC(=O)CNC(=O)[C@@H]1CCCN1C(=O)CN)NC(=O)[C@H](Cc1ccccc1)NC(=O)[C@H](C)NC(=O)[C@H](CCCNC(=N)N)NC(=O)CNC(=O)[C@@H]1CCCN1C(=O)CN)NC(=O)[C@H](CCCCNC(=O)[C@H](Cc1ccccc1)NC(=O)[C@H](C)NC(=O)[C@H](CCCNC(=N)N)NC(=O)CNC(=O)[C@@H]1CCCN1C(=O)CN)NC(=O)[C@H](Cc1ccccc1)NC(=O)[C@H](C)NC(=O)[C@H](CCCNC(=N)N)NC(=O)CNC(=O)[C@@H]1CCCN1C(=O)CN)C(=O)NCCCC(=O)O [S6, SPC3-(γ-aminobutyric acid)]	no toxicity
